Experimental data reported in US12433908B2, “Use of nicotinamide riboside, nicotinic acid riboside, and nicotinamide mononucleotide, reduced nicotinyl compounds, and nicotinoyl compound derivatives in infant formula for healthy development” (ChromaDex, Inc., priority 2016, dated 2025).

Experiment: CBC analysis of piglets given NR solution
Assay type: in vivo, piglets (Yorkshire/Hampshire crossbred)
Description: Sixteen (n=16) Yorkshire/Hampshire crossbred piglets were obtained from the University of California, Davis Swine Teaching and Research Center and received on lactation day (“LD”) 14. Prior to arrive, the piglets were processed by the suppler between 1-3 days of age by administration of iron and an antibiotic ([…] for swine) as is common practice at the University of California, Davis Swine Facility. It is not common practice at the University of California, Davis Swine Facility to give a second dose of iron and antibiotics unless it becomes necessary. The piglets were from two litters (litters 15 and 17), weaned at 17 days of age, and randomly placed into one of two groups balanced for litter, sex, and weight. The animals were not acclimated to the facility at arrival and were subsequently acclimated to the test diet administration system. The piglets were weaned into a temperature-controlled room (approximately 27-29° C.) that contained 10 adjacent pens. The piglets were group-housed in the nursery room at the Swine Facility, which is an enclosed room with access restricted to trained personnel. The two groups were separated by one pen containing piglets of similar age. Each morning enough nicotinamide riboside (NR, I) in water solution was prepared for that day's dose administration according to the dose preparation protocol. At least 5 mL of prepared dose was reserved and immediately frozen after preparation each day for analysis of nicotinamide riboside (NR, I) for the purpose of confirming stability of the dose material. The doses were stored at refrigeration temperature while not in use. Nicotinamide riboside (NR, I) was dosed once per day in the morning and at the same time each day. Piglets in the control group received the same volume of plain water and were dosed on the same schedule. Starting on Day 1, animals in the nicotinamide riboside (NR, I) group were dosed once daily (in the morning) with 277 mg nicotinamide riboside (NR, I) per pig resuspended in water for seven days. After one week, animals were dosed once daily with 342 mg nicotinamide riboside (NR, I) per pig delivered in 2.5 mL for seven days. For Days 1 and 2, the nicotinamide riboside (NR, I) solution was prepared by resuspending 2770 mg nicotinamide riboside (NR, I) in 50 mL water, and 5 mL of this solution was delivered to each pig by squirting it into the back of the mouth using a 10 mL syringe with a piece of tubing attached to the end. To reduce the volume to more efficiently deliver the nicotinamide riboside (NR, I) solution, the 2770 mg was resuspended in 25 mL water and 2.5 mL of the solution was squirted into the back of the mouth of each pig using a 3 mL syringe for Days 3-7. For Days 8-14, 3420 mg nicotinamide riboside (NR, I) was resuspended in 25 mL water and 2.5 mL of this solution was delivered to each pig. Each day prior to dosing, 2.5 mL of the nicotinamide riboside (NR, I) (5 mL on Days 1 and 2) were placed into a separate tube and frozen. Blood was collected from each pig via jugular venipuncture on Days 1, 8, and 14. In each instance, blood was collected prior to dosing with nicotinamide riboside (NR, I). On Day 1, the sow was removed from the piglets for approximately three hours prior to sample collection. On Days 8 and 14, feed was removed from the animals' pens 12 hours prior to sample collection. Blood was collected into purple-top vacutainers for CBC analysis and into red-top vacutainers for blood chemistry analysis. CBC analysis was performed at IDEXX Laboratories in West Sacramento, California using the Sysmex XT-iV Vet Hematology Autoanalyzer (Sysmex America Inc., Lincolnshire, Illinois). Red-top tubes were spun to collect serum and the serum frozen. Frozen aliquots (500 μL) were submitted to the University of California, Davis Veterinary medicine Teaching Hospital Clinical Diagnostic Laboratory for Blood Chemistry Analysis using the Cobas 6000 C501 Clinical Chemistry Analyzer (Roche Diagnostics, Indianapolis, IN). […]

[1] = Wk 1, 277 mg/pig once daily oral
[2] = Wk 2, 342 mg/pig once daily oral Days 8-14

Which “Basophils, %” value (Baseline, before dosing) does the source give for NC(=O)c1ccc[n+]([C@@H]2O[C@H](CO)[C@@H](O)[C@H]2O)c1 [NR, Nicotinamide riboside] here?
The value was 0.57%.

What about the “Basophils, count” value (Baseline, before dosing) of the same molecule?
Its value is 60 cells/μL.

What about the “Eosinophils, %” value (Baseline, before dosing) of the same molecule?
Its value is 1.11%.

And the “Eosinophils, count” value (Baseline, before dosing)?
The value was 108 cells/μL.

What about the HCT (Baseline, before dosing) of the same molecule?
Its HCT is 29.9%.

And the HGB (Baseline, before dosing)?
The HGB was 10.4 g/dL.

And the “Lymphocytes, %” value (Baseline, before dosing)?
The value was 65.8%.

What about the “Lymphocytes, count” value (Baseline, before dosing) of the same molecule?
Its value is 6.48 ×10^3 cells/μL.

And the MCH (Baseline, before dosing)?
The MCH was 16.0 pg.

And the MCHC (Baseline, before dosing)?
Its MCHC is 34.3 g/dL.

What about the MCV (Baseline, before dosing) of the same molecule?
The MCV was 46.2 fL.

What about the “Monocytes, %” value (Baseline, before dosing) of the same molecule?
The value was 6.17%.

What about the “Monocytes, count” value (Baseline, before dosing) of the same molecule?
Its value is 596 cells/μL.

What about the Neutrophil/Lymphocyte (Baseline, before dosing) of the same molecule?
Its Neutrophil/Lymphocyte is 0.41.

What about the “Neutrophils, %” value (Baseline, before dosing) of the same molecule?
The value was 26.3%.

And the “Neutrophils, count” value (Baseline, before dosing)?
The value was 2.47 ×10^3 cells/μL.

And the RBC (Baseline, before dosing)?
The RBC was 6.45 M/μL.

What about the WBC (Baseline, before dosing) of the same molecule?
The WBC was 9.7 ×10^3 cells/μL.

And the “Basophils, %” value [1]?
Its value is 0.49%.

What about the “Basophils, count” value [1] of the same molecule?
The value was 68 cells/μL.

What about the “Eosinophils, %” value [1] of the same molecule?
Its value is 1.52%.

And the “Eosinophils, count” value [1]?
Its value is 213 cells/μL.

And the HCT [1]?
Its HCT is 27.3%.

And the HGB [1]?
The HGB was 9.4 g/dL.

And the “Lymphocytes, %” value [1]?
The value was 51.0%.

And the “Lymphocytes, count” value [1]?
The value was 6.34 ×10^3 cells/μL.

And the MCH [1]?
Its MCH is 15.4 pg.

What about the MCHC [1] of the same molecule?
Its MCHC is 34.7 g/dL.

What about the MCV [1] of the same molecule?
The MCV was 44.7 fL.

What about the “Monocytes, %” value [1] of the same molecule?
Its value is 6.01%.

What about the “Monocytes, count” value [1] of the same molecule?
The value was 803 cells/μL.

What about the Neutrophil/Lymphocyte [1] of the same molecule?
Its Neutrophil/Lymphocyte is 0.85.

And the “Neutrophils, %” value [1]?
The value was 40.9%.

What about the “Neutrophils, count” value [1] of the same molecule?
The value was 5.41 ×10^3 cells/μL.

What about the RBC [1] of the same molecule?
The RBC was 6.06 M/μL.

And the WBC [1]?
Its WBC is 12.8 ×10^3 cells/μL.

What about the “Basophils, %” value [2] of the same molecule?
The value was 0.30%.

And the “Basophils, count” value [2]?
The value was 61 cells/μL.

What about the “Eosinophils, %” value [2] of the same molecule?
The value was 1.07%.

What about the “Eosinophils, count” value [2] of the same molecule?
The value was 179 cells/μL.

What about the HCT [2] of the same molecule?
Its HCT is 26%.

What about the HGB [2] of the same molecule?
The HGB was 9.4 g/dL.

And the “Lymphocytes, %” value [2]?
The value was 54.9%.

What about the “Lymphocytes, count” value [2] of the same molecule?
Its value is 10.31 ×10^3 cells/μL.

What about the MCH [2] of the same molecule?
The MCH was 15.5 pg.

And the MCHC [2]?
Its MCHC is 35.2 g/dL.

What about the MCV [2] of the same molecule?
Its MCV is 44.2 fL.

What about the “Monocytes, %” value [2] of the same molecule?
Its value is 6.80%.

And the “Monocytes, count” value [2]?
Its value is 1336 cells/μL.

And the Neutrophil/Lymphocyte [2]?
The Neutrophil/Lymphocyte was 0.73.

And the “Neutrophils, %” value [2]?
The value was 36.9%.

And the “Neutrophils, count” value [2]?
The value was 7.59 ×10^3 cells/μL.

And the RBC [2]?
Its RBC is 6.11 M/μL.

What about the WBC [2] of the same molecule?
The WBC was 19.5 ×10^3 cells/μL.

And the “CBC and serum chemistries, NR vs. control” value (baseline and weekly for the 2-week intervention)?
The value was “no statistically significant differences”.
